Patent publication US6313171A, “Method for preventing or treating elevated blood lipid level-related diseases by administering cinnamic acid derivatives” (Korea Research Institute of Bioscience & Biotechnology, priority 1998, dated 2001)

Tests used:
[1] = Farmer et al. 1995; cited from earlier work
liver = assay: Prevention of hepatic diseases: microscopic fatty liver grading in rabbits; assay type: in vivo, rabbit (New Zealand White)
Experimental: (§1) 30 three-month-old male New Zealand White rabbits (Yeonam Horticulture and Animal Husbandry College, Korea), each weighing about 2.5 to 2.6 kg, were raised under condition of temperature 20±2° C., relative humidity 55±5%, and photoperiod 12L/12D. The rabbits were divided into 5 groups and 5 groups of rabbits were fed with 5 different diets, i.e., RC4 diet (Oriental Yeast Co., Japan) containing 1% cholesterol (Control group); 1% cholesterol plus 1 mg/kg Lovastatin® (Merck, U.S.A.) (Lovastatin group); 1% cholesterol plus 0.1% 4-hydroxycinnamic acid (4-hydroxycinnamic acid group); 1% cholesterol plus 0.1% 3,4-dihydroxycinnamic acid (3,4-dihydroxycinnamic acid group); and 1% cholesterol plus 0.1% 3,4-dihydroxyhydrocinnamic acid (3,4-dihydroxyhydrocinnamic acid group), respectively. RC4 diet comprises 7.6% moisture, 22.8% crude protein, 2.8% crude fat, 8.8% crude ash, 14.4% crude cellulose and 43.6% soluble nitrogen-free substances. Cinnamic acid derivatives were purchased from Sigma Chemical Co. (St. Louis, Mo.).
(§2) The rabbits were fed for 8 weeks while being allowed free access to the diets and water.

[2] = assay type: in vivo, rabbit (New Zealand White); details: rabbits, 1% cholesterol diet plus 0.1% derivative or 1 mg/kg Lovastatin, 8 weeks
Experimental: as §1, §2
After eight weeks, the rabbits were anesthetized with an intramuscular injection of ketamine (50 mg/kg) in the femoral region and sacrificed. A blood sample was taken from the heart of each rabbit, allowed to stand for 2 hours and centrifuged at 3,000 rpm for 15 minutes and the supernatant serum was separated and stored in a freezer before use.
The chemical analysis of blood was carried out by employing a blood chemical analyzer (CIBA Corning 550 Express, USA) to determine the changes in GOT, GPT, total cholesterol, HDL-cholesterol and triglyceride levels.

main artery = assay: Analysis for fatty streak in the main artery of rabbits; assay type: in vivo, rabbit (New Zealand White)
Experimental: Cinnamic acid derivatives were purchased from Sigma Chemical Co. (St. Louis, Mo.). The rabbits were fed for 8 weeks while being allowed free access to the diets and water. The chest of each of the rabbits sacrificed in Step 2 was incised. […] The main artery was incised in the middle along the longitudinal axis and pinned to a dish. The moist artery was photographed and, then, the staining of fatty streaks was carried out in accordance with the method of […]., et al. (J. Lab. Clin. Med., 121, 103-110(1993)) as follows. A part of the incised main artery was washed three times with anhydrous propylene glycol for 2 min. and stained for 30 min. with a saturated solution of Oil Red O (ORO, Sigma Co.) dissolved in propylene glycol. Thereafter, the artery was washed twice with 85% propylene glycol for 3 min. to remove remaining staining solution and, then washed with physiological saline. The artery was photographed and the photograph was traced. The area of stained region (fatty streak region) was determined with an image analyzer (LEICA, Q-600, Germany) and its proportion (%) to the total arterial area was calculated.

## CC[C@H](C)C(=O)O[C@H]1C[C@@H](C)C=C2C=C[C@H](C)[C@H](CC[C@@H]3C[C@@H](O)CC(=O)O3)[C@H]21 [Lovastatin, reference compound]
[1]
  side effects: increase in creatine kinase in the liver and rhabdomyolysis
liver; FIGS. 2A-2E, control: many cells containing excessive fat around the central vein
  microscopic features of the liver: many cells containing excessive fat were observed around the central vein
liver; grades 1+(0-25%), 2+(26-50%), 3+(51-75), 4+(76-100%), rabbits, 8 weeks, Control 3.2 ± 0.3
  fatty liver grade (1+ to 4+): 3.4 ± 0.5
[2]; Control 2.5 ± 0.4
  HDL/TC: 4.9 ± 2.6%
[2]; Control 50 ± 11
  HDL-C (High density lipoprotein-cholesterol): 58 ± 23 mg/dL
[2]; Control 170 ± 30
  TG (Triglyceride): 153 ± 95 mg/dL
[2]; Control 1995 ± 472
  TC (Total cholesterol): 1446 ± 263 mg/dL
Main artery; FIGS. 1A-1E, control: a thick layer
  macrophage-lipid complex on the arterial endothelium: no or very thin layers of macrophage-lipid complex
Main artery; proportion of total arterial area, Oil Red O, rabbits, 8 weeks, Control 80 ± 8
  Fatty streak: 15 ± 3%
